System: Dendra2-LC3 HEK cells
Test: Native (green, GFP) Dendra2-LC3 intensity and puncta, phase I primary screen readout (T15/T0)
Type: cell-based, human
Conditions: for GFP intensity of native Dendra2-LC3: vs DMSO
Description: Conventional methods for estimating autophagy flux rely upon the assessment of LC3 or other autophagy substrates by Western blotting or immunocytochemistry (Ref. 27; herein incorporated by reference in its entirety); by their very nature, these techniques are static and limited to dead cells. Fluorescence-based methods that use tagged substrates allow visualization of autophagy within living cells, but typically require the overexpression of autophagy target proteins that may disrupt the very process they are intended to measure. To assess autophagy in human cells without compromising or interfering with the pathway, experiments were conducted during development of embodiments herein utilizing CRISPR/Cas9 genome editing (Refs. 29-30; herein incorporated by reference in their entireties) to insert the Dendra2 open reading frame into the MAP1LC3B locus (encoding LC3) of HEK cells (FIG. 2a). A mutated, nickase version of Cas9 (Cas9n) was used that is incapable of making double-stranded DNA breaks, thereby minimizing the risk of non-homologous end joining and unwanted insertions or deletions (Refs. 29, 35; herein incorporated by reference in their entireties). Two separate single guide RNAs (sgRNAs) were designed that recognize sequences just upstream and downstream of the MAP1LC3B start codon, and a homology directed repair (HDR) vector encoding the Dendra2 open reading frame flanked by 400 bp of homologous sequence surrounding the MAP1LC3B start codon (FIG. 2a). Following expression of the sgRNAs, Cas9n and the HDR in HEK cells, colonies were selected based upon green fluorescence and passaged to homogeneity (FIG. 2b). The insertion site was confirmed by DNA sequencing, PCR, and immunocytochemistry using antibodies that recognize LC3. Providing further validation of the insertion, transfection with siRNA directed against the MAP1LC3B locus elicited a significant reduction in Dendra2-LC3 protein levels as measured by western blotting and native GFP fluorescence (FIG. 2c, d). In untreated cells, Dendra2-LC3 fluorescence appears diffuse, as expected (FIG. 3a). […] Second, autophagy induction in these cells is accompanied not only by the formation of puncta, but also by relative decreases in diffuse Dendra2-LC3 fluorescence, as indicated by the model in FIG. 1.
For these studies the potent mTOR inhibitor torin1 (Ref. 36; herein incorporated by reference in its entirety) was selected as a positive control for autophagy induction, and the vacuolar ATPase inhibitor bafilomycin-A1 (Ref. 37; herein incorporated by reference in its entirety) as a positive control for autophagy inhibition. In each case, DMSO served as a vehicle (negative) control. Dendra2-LC3 was photoconverted immediately prior to drug application, and the fluorescence intensity in the green (GFP) and red (RFP) channels was measured at regular intervals for 15 h.
The Z′ value for the effect of torin1 on the normalized GFP intensity, calculated as a ratio of GFP intensity at 15 h to that at 0 h (T15/T0), was 0.63 when the assay was conducted in a 96-well format in our laboratory, and 0.56 when conducted in a 384-well format at the Center for Chemical Genomics (CCG, FIG. 3e), indicative of a robust screening platform (Ref. 38; herein incorporated by reference in its entirety). […] The false negative rate was near zero, ensuring a highly sensitive assay.
The possibility that cell death and toxicity mimics the reduction in GFP intensity that would otherwise denote autophagy induction was also addressed. To avoid confounding from toxicity, the area occupied by cells in each image is calculated using ImageJ software and used as a proxy for cell number; since all wells received the same number of cells, >25% reductions in the area occupied by cells at the end of the experiment indicates toxicity. The formation of Dendra2-LC3 puncta in each condition is scored simultaneously using the ‘analyze particles’ function in ImageJ. […]

| SMILES | Effect on torin1-elicited reduction in GFP intensity (co-treatment with torin1) | Formation of Dendra2-LC3 (LC3-positive) puncta (FPZ 0.5 μM, torin1 1 μM) | GFP intensity of native Dendra2-LC3 (FPZ 0.5 μM, torin1 1 μM) | GFP intensity of native Dendra2-LC3 (FPZ 0.5 μM, torin1 1 μM, listed as torin1) | GFP intensity of native Dendra2-LC3 (FPZ 0.5 μM, torin1 1 μM, listed as torin-1) | Rank among autophagy inducers in phase I (Prestwick and Enzo collections) |
| --- | --- | --- | --- | --- | --- | --- |
| CO/C1=C\C(C)=C\[C@@H](C)[C@@H](O)[C@@H](C)C/C(C)=C/C=C/[C@H](OC)[C@@H]([C@@H](C)[C@@H](O)[C@H](C)[C@@]2(O)C[C@@H](O)[C@H](C)[C@@H](C(C)C)O2)OC1=O [Bafilomycin-A1, bafilomycin-A1] | fully blocked | – | – | – | – | – |
| CCC(=O)N1CCN(c2ccc(-n3c(=O)ccc4cnc5ccc(-c6cnc7ccccc7c6)cc5c43)cc2C(F)(F)F)CC1 [Torin1, torin1] | – | elicits the formation of LC3-positive puncta | return is prevented | highly significant and durable reduction | reduces the steady-state GFP intensity | rank among the most potent inducers |

From patent US10928381B2, “In vitro methods of monitoring autophagy in a human cell using a photoconvertable fluorescent protein linked biomarker” (The Regents of the University of Michigan, priority 2018, dated 2021)
